This series is described as follows: Human HepG2 cell viability assay in 384 well format. Details: dose 125 nL, time 70.5 hour; concentration not given beside the values. As to conditions: HepG2 cells, read-out: Inhibition. It counts as toxicity, cell-based.
With `CN1CCN(c2ncnc3c2CCN(Cc2nccn2C)CC3)CC1`, the cytotoxicity at 70.5 h came to 6.69%.

Turning to `O=C(NC(c1ccccc1)c1cccnc1)C1CC1` (centres undefined), the cytotoxicity at 70.5 h is -6.82%.

For the compound `COCCN(CC1CC1)c1nc(CCN)nc2ccccc12`, the cytotoxicity at 70.5 h is -4.8%.

Take `CCCS(=O)(=O)NCC(O)c1c(Cl)cccc1Cl` (centres undefined): the cytotoxicity at 70.5 h is -0.597%.

For `CC(C)COC(=O)N1CC(=O)N(Cc2ccc(Cl)cc2)CC(O)C1` (centres undefined), the cytotoxicity at 70.5 h was -3.08%.

Consider `N#Cc1cnc(NCc2ccc(C(=O)NC3CC3)cc2)c(Cl)c1`, for which the cytotoxicity at 70.5 h was -4.64%.

For `c1cn2c(n1)CN(CC1CC1)CC(CN1CCOCC1)C2` (centres undefined), the cytotoxicity at 70.5 h was -7.21%.

On to `Cc1cc(N)nc(SC2CCN(c3ccccc3)C2=O)n1` (centres undefined), for which the cytotoxicity at 70.5 h is -2.2%.

In the case of `Cc1nc(CN(C)CC2CCCN(CCc3ccc(Cl)cc3)C2)no1` (centres undefined), the cytotoxicity at 70.5 h came out at 0.0181%.

For `COCCNc1nc(-c2ccc(S(=O)(=O)N3CCCCC3)cc2)cs1`, the cytotoxicity at 70.5 h is 0.097%.

As to `Cn1ncc2cnn(CC(O)COc3cccc4[nH]ccc34)c2c1=O` (centres undefined), the cytotoxicity at 70.5 h stood at 39.5%.

For `COCCn1c(-c2cccc(OC)c2)cnc1NC(=O)NC1CCCC1`, the cytotoxicity at 70.5 h stood at 6.84%.

In the case of `Cc1nc(CN(C)C2CCN(CC3CCCC3)C2)no1` (centres undefined), the cytotoxicity at 70.5 h is -1.44%.

`Cc1noc(C)c1CN1CCOC2(CCCN(c3ccccn3)C2)C1` (centres undefined): the cytotoxicity at 70.5 h was -8.65%.

As to `CCc1noc(C(C)N2CCC(NS(=O)(=O)c3cccs3)CC2)n1` (centres undefined), the cytotoxicity at 70.5 h is -11.6%.

Take `COc1ccccc1CNC(=O)CN(C)C(C)c1ccncn1` (centres undefined): the cytotoxicity at 70.5 h was -18.5%.

Consider `CCn1nc(C)cc1C(=O)NCc1nc(C)cc(C)n1`, for which the cytotoxicity at 70.5 h is -13.2%.

Consider `O=C(C[C@H]1[C@H]2CN(Cc3ccsc3)C[C@@H]12)N1CCCC1`, for which the cytotoxicity at 70.5 h is -1.9%.

With `CC1c2ncc(COc3cccnc3)n2CCN1C(=O)Cc1ccco1` (centres undefined), the cytotoxicity at 70.5 h was -13.8%.

Regarding `O=C(c1ccc(F)cc1)N1C[C@H]2CCC[C@@]2(COCc2ccncc2)C1`, the cytotoxicity at 70.5 h was -0.425%.

`O=C(CC1CC1)N1CCC2(CC1)CN(Cc1cccnc1)C(=O)CO2`: the cytotoxicity at 70.5 h is -12.2%.

As for `Cc1cnc(CNC(=O)NC2CCCN(c3ccccc3F)C2)s1` (centres undefined), the cytotoxicity at 70.5 h is -3.86%.

As for `Cc1cc(C)cc(CN2CCN(Cc3ccc4nonc4c3)CC2=O)c1`, the cytotoxicity at 70.5 h was -0.612%.

`CC(C)(C)C(=O)N1CCC(COCc2ccccc2)C1` (centres undefined): the cytotoxicity at 70.5 h is -3.49%.

For `COc1ccccc1CC(=O)NS(C)(=O)=O`, the cytotoxicity at 70.5 h is -10.7%.

On to `CS(=O)(=O)NCCC(=O)Nc1ccccc1N1CCc2ccccc21`, for which the cytotoxicity at 70.5 h was -22.1%.

As for `CC(C)CCN(C)Cn1ncc2cn(-c3ccccc3)nc2c1=O`, the cytotoxicity at 70.5 h stood at 14.5%.

With `CN(CCn1cccn1)C1CCCN(Cc2noc(C3CC3)n2)C1` (centres undefined), the cytotoxicity at 70.5 h amounted to 12.7%.

Consider `COCc1nc2cc(NCc3sc(C)nc3C)ccc2o1`, for which the cytotoxicity at 70.5 h was -4.53%.

As to `COc1ncccc1CNCc1c(C(C)C)nn(C)c1Cl`, the cytotoxicity at 70.5 h was -5.22%.

Consider `O=C(NCC1CCS(=O)(=O)C1)c1ccco1` (centres undefined), for which the cytotoxicity at 70.5 h is -8.58%.

Consider `Cc1ccc(C)c(C(=O)CN2C(=O)c3ccccc3CS2(=O)=O)c1`, for which the cytotoxicity at 70.5 h is -15%.

In the case of `Cc1ccccc1CN(C)C(=O)c1ccoc1`, the cytotoxicity at 70.5 h is 3.46%.

Turning to `CCC(OC)C(=O)N1CCc2nc(NC)nc(C(=O)N3CCCC3)c2C1` (centres undefined), the cytotoxicity at 70.5 h is -5.78%.

Take `O=C(CNC(=O)Nc1cccc(Cl)c1SC(F)F)NC1CC1`: the cytotoxicity at 70.5 h was 16.9%.

Regarding `Cc1cnn(CC2CCCCN2CC(=O)Nc2c(C)n[nH]c2C)c1` (centres undefined), the cytotoxicity at 70.5 h is -5.21%.

Regarding `CNC(=O)C(NC(=O)c1c(C)noc1C)c1ccc(F)c(F)c1` (centres undefined), the cytotoxicity at 70.5 h is 2.39%.

In the case of `Cc1nc(CN2CCO[C@H]3[C@@H](OCc4cccnc4)CC[C@@H]32)cs1`, the cytotoxicity at 70.5 h was 4.04%.

Regarding `CN(C)[C@@H]1CN(C(=O)Cc2ccc(F)cc2)[C@@H]2CCCO[C@H]12`, the cytotoxicity at 70.5 h worked out at 18.3%.

In the case of `Cn1cc(N)c(-c2nnc3n2CCCC3)n1`, the cytotoxicity at 70.5 h is -0.222%.

`Cc1c(C(=O)N[C@H]2CN(CCS(C)(=O)=O)C[C@@H]2C2CC2)cnn1C`: the cytotoxicity at 70.5 h was -5.86%.

As for `CCC(CC)C(=O)NS(=O)(=O)c1ccc(C#N)cc1C(F)(F)F`, the cytotoxicity at 70.5 h is -0.398%.

For the compound `Cc1nc(CN2CCC(CNC(=O)Nc3ccccn3)CC2)oc1C`, the cytotoxicity at 70.5 h was -8.33%.

For the compound `CN1C(=O)CCc2cc(NC(=O)C3CC(=O)N(CC4CC4)C3)ccc21` (centres undefined), the cytotoxicity at 70.5 h stood at 2.59%.

In the case of `CCn1cc(CN2CCCC(COc3ccccc3F)C2)cn1` (centres undefined), the cytotoxicity at 70.5 h amounted to 10.5%.

With `Cc1cc(-c2c[nH]nc2C2CCCCN2C(=O)c2ccccc2)on1` (centres undefined), the cytotoxicity at 70.5 h is -9.53%.

In the case of `Cc1cc(CN2CCN(CC(O)c3ccc(C)c(C)c3)CC2)no1` (centres undefined), the cytotoxicity at 70.5 h was -7.74%.

`CCNS(=O)(=O)C1CCN(C(=O)c2ccc(F)cc2)C1` (centres undefined): the cytotoxicity at 70.5 h came to 1.22%.

`CC(O)CN1CCN(Cc2cccc(C#N)c2)CC1` (centres undefined): the cytotoxicity at 70.5 h is -4.63%.

`O=C(CCn1ccnc1)N1CC[C@H](Oc2cccc(F)c2)[C@@H](O)CC1`: the cytotoxicity at 70.5 h worked out at 28.5%.

`c1cn(-c2cnc(C3CCNCC3)cn2)cn1`: the cytotoxicity at 70.5 h is -10.7%.

With `Cn1cc(N2CCCC(Nc3ccc4c(c3)CCCO4)C2=O)cn1` (centres undefined), the cytotoxicity at 70.5 h was -0.945%.

For the compound `CN(Cc1nnc(C2CC2)o1)C1CCN(CCCc2cnn(C)c2)C1` (centres undefined), the cytotoxicity at 70.5 h stood at 6.71%.

As for `CC(=O)N1CCCCC12CCCN(Cc1ccco1)C2` (centres undefined), the cytotoxicity at 70.5 h is -14.9%.

As for `CN(C)CCCN(CCC#N)C(=O)Nc1ccc2[nH]ccc2c1`, the cytotoxicity at 70.5 h is -4.34%.

On to `COc1c(C2CCCN2C(=O)c2cc(C3CC3)on2)c(C)nn1C` (centres undefined), for which the cytotoxicity at 70.5 h is -5.95%.

`Cc1cnc(NC(=O)CSC2CCc3ccccc3NC2=O)s1` (centres undefined): the cytotoxicity at 70.5 h was found to be 1.54%.

`CCn1cc(-c2cc(C(F)(F)F)n(CCCN)n2)cn1`: the cytotoxicity at 70.5 h is 1.14%.

`c1cnc(N2CCC3(COCc4cnc(N5CCOCC5)nc43)C2)nc1` (centres undefined): the cytotoxicity at 70.5 h was -16.6%.

Regarding `Cc1cc(CNC2(c3ccccc3F)CC2)no1`, the cytotoxicity at 70.5 h is -4.02%.

Turning to `CN(CCNC(=O)c1cccnc1)S(C)(=O)=O`, the cytotoxicity at 70.5 h is -5.32%.

Regarding `Cc1cc(C(=O)N[C@H]2COC[C@@H]2N2CCOCC2)c2ccc(F)cc2n1`, the cytotoxicity at 70.5 h is -8.8%.

For `Cc1cccc(CNC(=O)N(CCCO)C2CCc3ccccc32)n1` (centres undefined), the cytotoxicity at 70.5 h is -1.88%.

As to `CC(=O)N1CCC2(CC1)CN(C(=O)c1cccc3[nH]ccc13)CCO2`, the cytotoxicity at 70.5 h turned out to be 27.3%.

Regarding `O=C(c1cc(C2CC2)nc2onc(-c3ccccc3)c12)N1CCOCC1`, the cytotoxicity at 70.5 h was found to be 18.5%.

Regarding `O=C(NC1(c2nccs2)CCCC1)c1cc(C2CC2)[nH]n1`, the cytotoxicity at 70.5 h was -2.38%.

Consider `CNC(=O)C(C)(C)CNC(=O)Nc1ccncc1C`, for which the cytotoxicity at 70.5 h was -9.08%.

As to `Cc1cc(C)n(C2CCN(S(=O)(=O)N3CCC(C)CC3)CC2)n1`, the cytotoxicity at 70.5 h was -3.62%.

Take `COc1ncc(C2(O)CCN(Cc3cc(F)cc(F)c3)CC2)c(OC)n1`: the cytotoxicity at 70.5 h is -2.18%.

Turning to `Cc1csc([C@H]2C[C@@H]3CCN(Cc4cc(C)on4)C[C@H]3O2)n1`, the cytotoxicity at 70.5 h was -5.27%.

Turning to `CC(O)(CNC(=O)c1cccnc1-n1cccn1)c1ccsc1` (centres undefined), the cytotoxicity at 70.5 h is -7.4%.

Consider `CC(C)Nc1nc2c(c(NC3CC3)n1)CN(C(=O)c1ccsc1)CC2`, for which the cytotoxicity at 70.5 h was -17.2%.

With `CCN(CC)c1ccc(NC(=O)NCC2(C(N)=O)CCOCC2)cn1`, the cytotoxicity at 70.5 h was 1.3%.

`CC(C)c1nc(S(=O)(=O)N2CCSc3ccccc32)c[nH]1`: the cytotoxicity at 70.5 h is -3.59%.

With `CNc1cncc(C2CCCN2Cc2ccnc(N3CCCC3)n2)n1` (centres undefined), the cytotoxicity at 70.5 h amounted to 16.1%.

As to `Cc1nc(Nc2nncs2)cc(C2CCCN2C)n1` (centres undefined), the cytotoxicity at 70.5 h came to 3.74%.

`O=S(=O)(C1CC1)N1CC[C@]2(C[C@@H](Oc3ccccn3)CO2)C1`: the cytotoxicity at 70.5 h is -18.9%.

Take `COCc1nn(CC2CC2)c2c1CN(Cc1ccco1)CC2`: the cytotoxicity at 70.5 h was -8.39%.

With `COc1ccc(C(CNC(=O)Nc2cc(C)nn2C)N(C)C)cc1` (centres undefined), the cytotoxicity at 70.5 h was -5.49%.

Take `O=S(=O)(CCN1CCCCC1Cn1cncn1)c1ccccc1` (centres undefined): the cytotoxicity at 70.5 h is 27.2%.

With `CN(CC(N)=O)Cc1cc(Cl)cc2cccnc12`, the cytotoxicity at 70.5 h is -8.6%.

In the case of `O=C1OCCN1Cc1cccc(C(F)(F)F)c1F`, the cytotoxicity at 70.5 h is -10.3%.

`CCOCC1CN(Cc2cccnc2OC)Cc2cnn(C)c21` (centres undefined): the cytotoxicity at 70.5 h was found to be 2.89%.

Take `O=C(C1CCCCC1)N1CCC2(CCCN2CC2CC2)CC1`: the cytotoxicity at 70.5 h was -2.81%.

Take `Cc1nn(C)c(C)c1NC(=O)CN1CCc2c(nc(C3CC3)n2C)C1`: the cytotoxicity at 70.5 h is 12.4%.

As for `CC(C)=CCN1C[C@H]2CC[C@@H]1CN(C(=O)c1ccc3[nH]cnc3c1)C2`, the cytotoxicity at 70.5 h was 3.14%.

For the compound `O=C(c1cc[nH]n1)N1CC[C@@H]2CN(Cc3ccncc3)S(=O)(=O)[C@@H]2CC1`, the cytotoxicity at 70.5 h was -5.13%.

As for `O=C(Cc1cccs1)NCC1COCc2c(-c3ccoc3)nnn2C1` (centres undefined), the cytotoxicity at 70.5 h was -9.17%.

Turning to `Cc1ccoc1CNCc1nnc2n1CCCC2C(F)(F)F` (centres undefined), the cytotoxicity at 70.5 h is -3.7%.

In the case of `c1cc(CCNc2ccc(CC3CCNC3)cn2)ccn1` (centres undefined), the cytotoxicity at 70.5 h is -4.08%.

For the compound `CCc1noc(C)c1C(=O)N1CCC2(CCCN(CC(C)(C)C)C2=O)C1` (centres undefined), the cytotoxicity at 70.5 h is -5.92%.

Consider `O=C(N1CCCC1)N1CCc2onc(COc3cccnc3)c2C1`, for which the cytotoxicity at 70.5 h was -3.27%.

As for `Cc1ccc(CN2C[C@@H](c3ccccc3)[C@@]3(CCNC3=O)C2)o1`, the cytotoxicity at 70.5 h was 2.86%.

`COc1cc(CNCCn2cc(C)cn2)cc2c1OCCO2`: the cytotoxicity at 70.5 h worked out at 1.39%.

Regarding `CCS(=O)(=O)CC(=O)Nc1ccc2oc(C3CC3)nc2c1`, the cytotoxicity at 70.5 h is -0.903%.

As to `COc1c(C2CCCN2C(=O)c2ccnc(N(C)C)c2)c(C)nn1C` (centres undefined), the cytotoxicity at 70.5 h is -6.74%.

Turning to `Cn1ccnc1C(=O)N1CCCC1c1ccc(C(=O)N2CCOCC2)s1` (centres undefined), the cytotoxicity at 70.5 h was -2.53%.

Turning to `CS(=O)(=O)c1cc(Cl)cnc1C1CCN(C(=O)C2CCOCC2)CC1`, the cytotoxicity at 70.5 h was 9.7%.

As to `Cc1ccsc1C(=O)N1CCCc2c(c(=O)n(C)n2C)C1`, the cytotoxicity at 70.5 h was -11%.

(Values after ChEMBL document CHEMBL3507680, “University of Dundee, Gates Library screen for HepG2 cell viability”.)
